Assay results taken from US20260083750A1, “SMALL MOLECULE INHIBITORS OF KRAS PROTEINS” (MERCK SHARP & DOHME LLC, priority 2022, published 2026).

Experiments:
[1] = tested on: SW620 cells (homozygous KRAS-G12V activating mutation); experiment: Cellular phospho-ERK assay in G12V cell line; type: cell-based; conditions: Homo sapiens, SW-620, 2 hours compound incubation, ratio of p-ERK vs. total ERK, read-out: SW620 pERK IC50
Description: (§1) Procedure for Cellular Phospho-ERK Assay in G12D and G12V Cell Lines
(§2) PANC08.13 cells (ATCC® CRL-2551™), containing homozygous KRAS-G12D activating mutation, were cultured in growth medium made of RPMI1640-GlutaMAX™—I (ThermoFisher Scientific 61870) containing 15% heat inactivated fetal bovine serum (ThermoFisher Scientific 10091148)). SW620 cells (ATCC® […]), containing homozygous KRAS-G12V activating mutation, were cultured in growth medium that contains RPMI 1640-GlutaMAX™—I (ThermoFisher Scientific 61870) containing 10% heat inactivated fetal bovine serum (ThermoFisher Scientific 10091148).
(§3) Cells for the assay were harvested in growth medium after TrypLE (ThermoFisher scientific 12604021) digestion and were seeded in a 384-well collagen coated cell culture plate (Corning 356702) at a density of 10,000-15,000 cells/20 uL/well, and incubated at 37° C., 5% CO2 overnight. The compound (with 10 mM stock concentration) dose-response titrations were prepared [30 μM final ERK detection assay concentration and 1:3 dilutions, 10-point dose response] and appropriate amounts (270 nL) of test compounds were dispensed in a 384-well intermediate plate using an Echo 550 liquid handler. 30 uL/well of RPMI medium 1640-GlutaMAX™—I was added to the intermediate plate and the contents of the intermediate plate (10 uL/well) were then transferred to the 384-well collagen coated cell culture plate, which was incubated at 37° C., 5% CO2 for 2 hours. After removal of medium from the collagen coated cell culture plate, cells were lysed in lysis buffer from Alpha SureFire® Ultra™ Multiplex p-ERK and total ERK assay kit (PerkinElmer MPSU-PTERK) containing Halt™ Protease and Phosphatase inhibitor cocktail (ThermoFisher Scientific 78446) at room temperature with constant shaking at 300 rpm for 30 minutes. The cell lysates were then transferred to an OptiPlate-384 plate (PerkinElmer 6005620), and the phosphorylation of ERK (p-ERK) and total ERK levels were detected by Alpha SureFire® Ultra™ Multiplex p-EEK kit and total ERK assay kit (PerkinElmer MPSU-PTERK) following the manufacturer's protocol. Assay plates were read on a EnVision Multimode Plate Reader (PerkinElmer), and the ratio of p-ERK vs. total ERK in each well was used as the final readout. Dose response curves were analyzed using a 4-parameter logistic model to calculate IC50 values using Spotfire software.

KRAS-G13D = molecular target: T1, KRAS-G13D (Homo sapiens, UniProt P01116, G13D); experiment: SOS-catalyzed nucleotide exchange assay (Procedure A, TR-FRET); type: biochemical; conditions: 60 min preincubation, GTP, read-out: KRAS G13D GNE IC50
T1 construct: N-terminal biotin-acceptor peptide […]
T1 sequence (P01116 with tags, fused parts or gaps isoform P01116-2 G13D): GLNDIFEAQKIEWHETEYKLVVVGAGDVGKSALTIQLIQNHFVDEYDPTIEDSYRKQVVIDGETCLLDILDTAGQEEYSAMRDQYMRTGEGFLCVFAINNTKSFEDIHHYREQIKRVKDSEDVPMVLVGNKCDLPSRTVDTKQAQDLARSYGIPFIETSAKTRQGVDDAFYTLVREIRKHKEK
Source text: (§4) Procedure for SOS-Catalyzed Nucleotide Exchange Assay for KRAS-G12C/D/V, G13D, HRAS, and NRAS (Procedure A)
(§5) Recombinant KRAS-G12C protein used in this assay has an additional triple mutation (C51S/C80L/C118S), whereas KRAS-G12D/V, G13D, HRAS and NRAS are in context of their WT protein sequence background. Specifically, the SOS-catalyzed nucleotide exchange assay utilizes a preformed TR-FRET complex containing a specific biotinylated RAS protein (KRAS-G12C/V/D, G13D, HRAS, NRAS; described above) with Bodipy-GDP, and Terbium-streptavidin. Compounds are preincubated with this complex for 60 minutes. Subsequently, recombinant human SOS protein and unlabeled GTP are added to initiate the exchange reaction. Small molecule inhibitors stabilize the Bodipy-GDP complex whereas the untreated protein rapidly exchanges Bodipy-GDP for unlabeled GTP resulting in reduced TR-FRET signal.
(§6) To assemble the preformed TR-FRET complexes, each biotinylated RAS protein is diluted to 2 μM in an EDTA Buffer (20 mM HEPES pH 7.5, 50 mM sodium chloride, 10 mM EDTA, and 0.01% Tween) and incubated at room temperature for one hour. This mixture is then further diluted to 90 nM in an Assay Buffer (20 mM HEPES pH 7.5, 150 mM sodium chloride, 10 mM magnesium chloride, and 0.005% Tween) containing 15 nM of Terbium-Streptavidin (Invitrogen, catalog #PV3577) and 900 nM of Bodipy-GDP (Invitrogen, catalog #G22360) and incubated at room temperature for six hours. It should be noted that this preformed TR-FRET complex for each of the RAS protein were made ahead of time, aliquoted and stored at −80° C. until the day of the experiment.
(§7) Each test compound (10 mM stock in DMSO) is diluted in DMSO to make a final-10-point, 3-fold dilution and is acoustically dispensed into a 384-well assay plate (Corning, catalog #3820) using an Echo 550 (Labcyte). Each well of the assay plate receives 3 μL of a specific 3× RAS preformed TR-FRET complex and 3 μL of Assay Buffer and is incubated at room temperature for 60 minutes (preincubation time). Each well then receives 3 μL of 3× recombinant human SOS protein and GTP (Sigma, G8877) in Assay Buffer and is incubated at room temperature for 30 minutes (G13D), 60 minutes (G12C/D, H/NRAS) or 90 minutes for G12V. The final reaction in each well of […] consists of 3 mM GTP, specific Ras and SOS proteins in the following concentrations: KRAS-G12C/SOS=3 nM/40 nM, KRAS-G12D/SOS=1 nM/40 nM, KRAS-G12V/SOS=1.25 nM/160 nM, KRAS-G13D/SOS=1.25 nM/0 nM, HRAS & NRAS=1.25 nM/40 nM.
(§8) The time-resolved fluorescence resonance energy transfer (TR-FRET) signal is measured on an Envision (PerkinElmer) plate reader: Excitation filter=340 nm; emission1=495 nm; emission2=520 nm; dichroic mirror=D400/D505; delay time=[…]. The signal of each well is determined as the ratio of the emission at 520 nm to that at 495 nm. […] The apparent effect as a function of compound concentration is fit to a four-parameter logistic equation.

[2] = molecular target: T2, KRAS-G12C (C51S/C80L/C118S) (Homo sapiens, UniProt P01116, C118S/C51S/C80L/G12C); experiment: as above; type: biochemical; conditions: 60 min preincubation, SOS + GTP, read-out: KRAS G12C GNE IC50
T2 construct: N-terminal biotin-acceptor peptide […]
T2 sequence (P01116 with tags, fused parts or gaps isoform P01116-2 G12C/C51S/C80L/C118S): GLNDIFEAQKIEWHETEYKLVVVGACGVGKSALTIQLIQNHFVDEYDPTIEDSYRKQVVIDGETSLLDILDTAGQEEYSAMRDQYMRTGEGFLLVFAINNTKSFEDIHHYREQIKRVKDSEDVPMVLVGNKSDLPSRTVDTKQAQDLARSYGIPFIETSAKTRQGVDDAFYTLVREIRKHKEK
Source text: as §4, §5, §6, §7, §8

KRAS-G12V = molecular target: T3, KRAS-G12V (Homo sapiens, UniProt P01116, G12V); experiment: as above; type: biochemical; conditions: 60 min preincubation, SOS + GTP, read-out: KRAS G12V GNE IC50
T3 construct: N-terminal biotin-acceptor peptide […]
T3 sequence (P01116 with tags, fused parts or gaps isoform P01116-2 G12V): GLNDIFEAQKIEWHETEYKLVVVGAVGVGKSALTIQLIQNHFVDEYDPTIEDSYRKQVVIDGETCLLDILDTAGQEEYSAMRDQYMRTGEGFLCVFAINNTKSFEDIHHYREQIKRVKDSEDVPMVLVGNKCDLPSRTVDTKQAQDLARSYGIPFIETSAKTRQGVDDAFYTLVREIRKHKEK
Source text: as §4, §5, §6, §7, §8

KRAS-G12D = molecular target: T4, KRAS-G12D (Homo sapiens, UniProt P01116, G12D); experiment: as above; type: biochemical; conditions: 60 min preincubation, SOS + GTP, read-out: KRAS G12D GNE IC50
T4 construct: N-terminal biotin-acceptor peptide […]
T4 sequence (P01116 with tags, fused parts or gaps isoform P01116-2 G12D): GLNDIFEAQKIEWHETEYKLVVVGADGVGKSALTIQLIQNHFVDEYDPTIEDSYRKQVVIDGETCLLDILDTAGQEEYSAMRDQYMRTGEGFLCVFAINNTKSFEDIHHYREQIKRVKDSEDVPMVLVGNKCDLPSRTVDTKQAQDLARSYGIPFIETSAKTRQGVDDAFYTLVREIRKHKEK
Source text: as §4, §5, §6, §7, §8

[3] = tested on: PANC08.13 cells (homozygous KRAS-G12D activating mutation); experiment: Cellular phospho-ERK assay in G12D cell line; type: cell-based; conditions: Homo sapiens, PANC-08-13, 2 hours compound incubation, ratio of p-ERK vs. total ERK, read-out: PANC 0813 pERK IC50
Description: as §1, §2, §3

HRAS = HRAS (Homo sapiens, UniProt P01112); experiment: SOS-catalyzed nucleotide exchange assay (Procedure A, TR-FRET); type: biochemical; conditions: 60 min preincubation, SOS + GTP, read-out: HRAS GNE IC50
Chain of HRAS (P01112 with tags, fused parts or gaps): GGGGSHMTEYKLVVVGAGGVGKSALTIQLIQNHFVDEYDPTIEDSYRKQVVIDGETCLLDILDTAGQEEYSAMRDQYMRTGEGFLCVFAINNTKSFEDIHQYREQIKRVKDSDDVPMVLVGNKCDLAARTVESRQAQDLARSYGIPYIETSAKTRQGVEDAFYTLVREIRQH
Source text: as §4, §5, §6, §7
(§9) The time-resolved fluorescence resonance energy transfer (TR-FRET) signal is measured on an Envision (PerkinElmer) plate reader: Excitation filter=340 nm; emission1=495 nm; emission2=520 nm; dichroic mirror=D400/D505; delay time=[…]. The signal of each well is determined as the ratio of the emission at 520 nm to that at 495 nm. Percent effect of each well is determined after normalization to control wells containing DMSO (no effect) or a saturating concentration of inhibitor (max effect). The apparent effect as a function of compound concentration is fit to a four-parameter logistic equation.

NRAS = NRAS (Homo sapiens, UniProt P01111); experiment: as above; type: biochemical; conditions: 60 min preincubation, SOS + GTP, read-out: NRAS GNE IC50
Chain of NRAS (P01111 with tags, fused parts or gaps): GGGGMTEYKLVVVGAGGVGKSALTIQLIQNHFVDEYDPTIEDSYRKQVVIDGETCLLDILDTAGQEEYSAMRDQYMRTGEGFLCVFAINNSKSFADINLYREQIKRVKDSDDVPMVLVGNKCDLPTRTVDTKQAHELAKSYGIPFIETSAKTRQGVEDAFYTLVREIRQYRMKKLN
Source text: as §4, §5, §6, §7, §9

IC50 (KRAS-G13D) | IC50 [2] | Structure (SMILES) | IC50 [1] | IC50 (KRAS-G12V) | IC50 (KRAS-G12D) | IC50 [3] | IC50 (HRAS) | IC50 (NRAS)
 |  | N#Cc1c(N)sc2c(F)ccc(-c3c(Cl)cc4c(N5CCCCCC5)nc(OC[C@@]56CCCN5C[C@H](F)C6)nc4c3F)c12 [Ex. 1, 2-amino-4-(4-(azepan-1-yl)-6-chloro-8-fluoro-2-(((2R,7aS)-2-fluorotetrahydro-1H-pyrrolizin-7a(5H)-yl)methoxy)quinazolin-7-yl)-7-fluorobenzo[b]thiophene-3-carbonitrile] | 74.5 nM |  |  | 68.8 nM | > 11100 nM | > 11100 nM
 |  | C[C@@H]1CCCCCN1c1nc(OC[C@@]23CCCN2C[C@H](F)C3)nc2c(F)c(-c3ccc(F)c4sc(N)c(C#N)c34)c(Cl)cc12 [Ex. 2, 2-amino-4-(6-chloro-8-fluoro-2-(((2R,7aS)-2-fluorotetrahydro-1H-pyrrolizin-7a(5H)-yl)methoxy)-4-((R)-2-methylazepan-1-yl)quinazolin-7-yl)-7-fluorobenzo[b]thio-phene-3-carbonitrile] | 408 nM | 13.2 nM | 8.61 nM | 372 nM |  | 
63.7 nM | 51.1 nM | N#Cc1c(N)sc2c(F)ccc(-c3c(Cl)cc4c(N5CCOCCC5C5CC5)nc(OC[C@@]56CCCN5C[C@H](F)C6)nc4c3F)c12 (stereo partly drawn) [compound 17, 2-amino-4-(6-chloro-4-(5-cyclopropyl-1,4-oxazepan-4-yl)-8-fluoro-2-(((2R,7aS)-2-fluorotetrahydro-1H-pyrrolizin-7a(5H)-yl)methoxy)quinazo-lin-7-yl)-7-fluorobenzo[b]thio-phene-3-carbonitrile] |  | 44.1 nM | 188 nM | 2260 nM | > 11100 nM | > 11100 nM
44.8 nM | 22.6 nM | C[C@H]1CCOCCN1c1nc(OC[C@]2(CN(C)C)CC2(F)F)nc2c(F)c(-c3ccc(F)c4sc(N)c(C#N)c34)ncc12 [compound 22, 2-amino-4-(2-(((R)-1-((dimethylamino)meth-yl)-2,2-difluorocyclopropyl)methoxy)-8-fluoro-4-((S)-5-methyl-1,4-oxazepan-4-yl)pyrido[4,3-d]pyrimidin-7-yl)-7-fluorobenzo[b]thiophene-3-carbonitrile] |  | 49.5 nM | 253 nM | 413 nM | > 11100 nM | > 11100 nM
 |  | CCNC[C@@]1(COc2nc(N3CCCOCC3)c3cc(Cl)c(-c4ccc(F)c5sc(N)c(C#N)c45)c(F)c3n2)CC1(F)F [compound 30, 2-amino-4-(6-chloro-2-(((R)-1-((ethylamino)methyl)-2,2-difluorocyclopropyl)methoxy)-8-fluoro-4-(1,4-oxazepan-4-yl)quinazolin-7-yl)-7-fluorobenzo[b]thiophene-3-carbonitrile] | 305 nM | 33 nM | 206 nM | 849 nM |  | 
17.2 nM | 30.5 nM | CN1CCC[C@H]1COc1nc(N2CCCOCC2)c2cc(Br)c(-c3ccc(F)c4sc(N)c(C#N)c34)c(F)c2n1 [compound 38, 2-amino-4-(6-bromo-8-fluoro-2-(((S)-1-methylpyrrolidin-2-yl)methoxy)-4-(1,4-oxazepan-4-yl)quinazolin-7-yl)-7-fluorobenzo[b]thiophene-3-carbonitrile] |  | 8.97 nM | 47.1 nM | 300 nM | > 11100 nM | > 11100 nM

Structure (SMILES) | IC50 (KRAS-G13D) | IC50 [2] | IC50 [1] | IC50 (KRAS-G12V) | IC50 (KRAS-G12D) | IC50 [3] | IC50 (HRAS) | IC50 (NRAS)
C[C@H]1CCOCCN1c1nc(OC[C@@]23CCCN2C[C@H](F)C3)nc2c(F)c(-c3ccc(F)c4sc(N)c(C#N)c34)c(Cl)cc12 (single isomer, unassigned) [Ex. 19] | 2.37 nM | 6.07 nM | 15 nM | 2.32 nM | 2.4 nM | 34.2 nM | 2070 nM | 4310 nM
C[C@H]1CCCCCN1c1nc(OC[C@@]23CCCN2C[C@H](F)C3)nc2c(F)c(-c3ccc(F)c4sc(N)c(C#N)c34)c(Cl)cc12 [Ex. 3, 2-amino-4-(6-chloro-8-fluoro-2-(((2R,7aS)-2-fluorotetrahydro-1H-pyrrolizin-7a(5H)-yl)methoxy)-4-((S)-2-methylazepan-1-yl)quinazolin-7-yl)-7-fluorobenzo[b]thio-phene-3-carbonitrile] | 54.6 nM | 30.9 nM | 806 nM | 40.3 nM | 113 nM | 776 nM | > 11100 nM | > 11100 nM
